Assay results: patent publication US10598672B2, “Methods and compositions for diagnosing and treating loss and/or distortion of taste or smell” (Cyrano Therapeutics, Inc., priority 2014, dated 2020)

Key:
[1] = system: patients with taste dysfunction; test: Subjective taste acuity and flavor perception (0-100 scale); type: in vivo, human; settings: for FLAVOR PERCEPTION: DEGREE OF IMPROVEMENT / TASTE ACUITY: DEGREE OF IMPROVEMENT: Mean ± SEM
Description: Subjective statements of acuity loss were quantitated by use of a scale from 0-100 with 100 reflecting total loss of taste function, 0 reflecting no loss and a number between 0-100 reflecting appropriate degree of loss. Mean±SEM of loss degree was measured among all patients and each pathology initiating taste dysfunction.
Subjective statements of taste acuity loss and loss of flavor perception were quantitated by use of a scale from 0-100 with 100 reflecting total loss of taste acuity or flavor perception, 0 reflecting no loss and a number between 0-100 reflecting appropriate degree of loss. […] Mean±SEM of loss degree was measured among all patients and each pathology initiating taste dysfunction.
[…] Saliva Shh and measurements of taste function by use of subjective responses of acuity and flavor perception and in olfactometry was measured at intervals of 2-6 months in these patients.

[2] = system: patients with taste dysfunction; test: Gustometry: DT, RT, ME (and HR) for NaCl, sucrose, HCl, urea; type: in vivo, human
Description: Smell and taste functions under each study condition were measured by standardized psychophysical sensory testing techniques. Measurements included determination of detection thresholds (DTs), recognition thresholds (RTs), magnitude estimation (ME), and hedonic response (HR) for 4 odors (i.e., pyridine [dead fish], nitrobenzene [bitter almond], thiophene [petroleum], and amyl acetate [banana oil]) (olfactometry) and for 4 tastants (i.e., sodium chloride [salt], sucrose [sweet], hydrochloride [sour], and urea [bitter]) (gustometry). These techniques have been previously described with olfactometry confirmed in a prior controlled double-blind clinical trial. Each measurement was performed independent of any prior knowledge of response.
Gustometry measurements included measurements of detection (DT) and recognition (RT) thresholds and magnitude estimation (ME) for four tastants [NaCl (salt), sucrose (sweet), HCl (sour) and urea (bitter)]. Abnormalities of taste function were measured by increased DT or RT above normal (decreased sensitivity) and/or decreased ME (decreased sensitivity) for one or more of the tastants presented.

[3] = MEN, patient number 38, after oral theophylline
[4] = WOMEN, patient number 41, after oral theophylline
[5] = all patients, patient number 79, after oral theophylline
[6] = TH[…] (81) patients with taste dysfunction, Mean ± SEM
[7] = after intranasal treatment vs before treatment or after oral treatment
[8] = after oral treatment vs before treatment

Cn1c(=O)c2[nH]cnc2n(C)c1=O [theophylline]
FLAVOR PERCEPTION: I[…] [1, 3]: 22
FLAVOR PERCEPTION: I[…], figure in parentheses [1, 3]: 58
TASTE ACUITY: I[…] [1, 3]: 21
TASTE ACUITY: I[…], figure in parentheses [1, 3]: 55
FLAVOR PERCEPTION: DEGREE OF IMPROVEMENT [1, 3]: 18 ± 4%
TASTE ACUITY: DEGREE OF IMPROVEMENT [1, 3]: 20 ± 5%
FLAVOR PERCEPTION: I[…] [1, 4]: 23
FLAVOR PERCEPTION: I[…], figure in parentheses [1, 4]: 54
TASTE ACUITY: I[…] [1, 4]: 24
TASTE ACUITY: I[…], figure in parentheses [1, 4]: 59
FLAVOR PERCEPTION: DEGREE OF IMPROVEMENT [1, 4]: 36 ± 6%
TASTE ACUITY: DEGREE OF IMPROVEMENT [1, 4]: 35 ± 6%
patients with improvement in both subjective taste acuity and flavor perception ([1]; after oral treatment 200-1000 mg for 2-10 months): about 60%
FLAVOR PERCEPTION: I[…] [1, 5]: 45
FLAVOR PERCEPTION: I[…], figure in parentheses [1, 5]: 63
TASTE ACUITY: I[…] [1, 5]: 45
TASTE ACUITY: I[…], figure in parentheses [1, 5]: 63
FLAVOR PERCEPTION: DEGREE OF IMPROVEMENT [1, 5]: 24 ± 4%
TASTE ACUITY: DEGREE OF IMPROVEMENT [1, 5]: 28 ± 4^+ %
NaCl DT, Detection Threshold [2, 6]: 3.4 ± 0.2^
NaCl ME, Magnitude Estimation [2, 6]: 58 ± 5
NaCl RT, Recognition Threshold [2, 6]: 3.6 ± 0.2
SCl DT, Detection Threshold [2, 6]: 3.6 ± 0.2
SCl ME, Magnitude Estimation [2, 6]: 54 ± 5
SCl RT, Recognition Threshold [2, 6]: 3.7 ± 0.3
SUCROSE DT, Detection Threshold [2, 6]: 3.3 ± 0.2
SUCROSE ME, Magnitude Estimation [2, 6]: 49 ± 5
SUCROSE RT, Recognition Threshold [2, 6]: 3.6 ± 0.2
UREA DT, Detection Threshold [2, 6]: 3.9 ± 0.3
UREA ME, Magnitude Estimation [2, 6]: 54 ± 5
UREA RT, Recognition Threshold [2, 6]: 3.9 ± 0.3
DTs and RTs for all tastants [2, 7]: lower (more sensitive)
HRs for sucrose [2, 7]: more positive (more pleasant)
Hedonic responses for sodium chloride, hydrochloride, and urea [2, 7]: more negative (more unpleasant)
Magnitude estimations for all tastants [2, 7]: higher (more intense)
DTs for sucrose and hydrochloride and RTs for sodium chloride, hydrochloride, and urea [2, 8]: decreased (more sensitive)
HR for hydrochloride and urea [2, 8]: increased (more unpleasant)
Magnitude estimations for all tastants [2, 8]: increased (more sensitive)
gustometric functions ([2]; patients with taste dysfunction, oral treatment): improving gustometric functions
